# From patent US6329399A, “Antifungal amine derivatives and processing for producing the same” (Pola Chemical Industries, Inc., priority 1997, dated 2001)
# Columns and labels:
# Assay in all cases: Measurement of antimycotic activity (minimum inhibitory concentration, MIC) against dermatophyte
# Format in all cases: cell-based
# T. rubrum IF09185 = details: Trichophyton rubrum, 168 h, Sabouraud's agar pH=5.9, 27° C., 1 week
# Description: (§1) The antimycotic activity of the compounds of the invention against dermatophyte was examined.
# (§2) More particularly, the test dermatophyte strains shown in Tables 9 and 10 below were cultivated in advance on a slant culture of Sabouraud's agar medium (manufactured by Nissui Seiyaku Co., Ltd.; 1.0% peptone, 4.0% glucose, 1.5% agar, pH=5.9) at 27° C. for 2 weeks to allow them to grow conidia sufficiently. Then, sterilized physiological saline containing 0.05 weight/volume % of Tween 80 was added to the culture and while rubbing the surface of the culture with a platinum loop, the conidia were separated and caused to float. Using a hemocytometer, the filtrate was adjusted with sterilized physiological saline such that the concentration of conidia was 10^6 cells/ml, which was used as a test microbe liquid.
# (§3) On the other hand, PR compounds and AD compounds (test drugs) of the present invention obtained in the examples described above were taken each in an amount of 10 mg, and 1 ml of dimethyl sulfoxide was added thereto to form a stock solution, of which 500 μl was taken and 500 μl of dimethyl sulfoxide was added thereto to prepare a 2-fold dilution. The same operation was repeated to prepare 13-stages ranging from 10 to 0.0025 mg/ml (final concentration of test system 100 to 0.025 μg/ml) of diluted drug solutions. Solutions with various diluted concentrations of test drug were each dispensed in sterilized petri dish with an amount of 100 μl. Then, 10 ml of sterile-dissolved Sabouraud's agar medium (1.0% peptone, 4.0% glucose, 1.5% agar, pH=5.9) was added, well mixed and solidified. Then, 5 μl of the test microbe solution previously adjusted were added using a microplanter, respectively.
# (§4) The results are shown in Table 9 for PR compounds and in Table 10 for AD compounds, respectively. In the column of Compound No. in Tables 9 and 10, "PR-" or "AD-" were omitted.
# T. rubrum IF05808 = details: Trichophyton rubrum, 168 h, Sabouraud's agar pH=5.9, 27° C., 1 week
# Description: as §1, §2, §3, §4
# [1] = tested on: T. mentagrophytes IF07552; details: Trichophyton mentagrophytes, 168 h, Sabouraud's agar pH=5.9, 27° C., 1 week
# Description: as §1, §2, §3, §4
# [2] = tested on: T. mentagrophytes IF05811; details: Trichophyton mentagrophytes, 168 h, Sabouraud's agar pH=5.9, 27° C., 1 week
# Description: as §1, §2, §3, §4
# M. canis TIMM0760 = details: Microsporum canis, 168 h, Sabouraud's agar pH=5.9, 27° C., 1 week
# Description: as §1, §2, §3, §4
# M. gypseum IF08231 = details: Nannizzia gypsea, 168 h, Sabouraud's agar pH=5.9, 27° C., 1 week
# Description: as §1, §2, §3, §4
# T. violaceum TIMM1264 = details: Trichophyton violaceum, 168 h, Sabouraud's agar pH=5.9, 27° C., 1 week
# Description: as §1, §2, §3, §4
# [3] = tested on: T. mentagrophytes TIMM1177; details: Trichophyton mentagrophytes, 168 h, Sabouraud's agar pH=5.9, 27° C., 1 week
# Description: as §1, §2, §3, §4
# [4] = tested on: T. mentagrophytes TIMM1189; details: Trichophyton mentagrophytes, 168 h, Sabouraud's agar pH=5.9, 27° C., 1 week
# Description: as §1, §2, §3, §4
MIC (T. rubrum IF09185) [mg/L],MIC (T. rubrum IF05808) [mg/L],MIC [1] [mg/L],MIC [2] [mg/L],MIC (M. canis TIMM0760) [mg/L],MIC (M. gypseum IF08231) [mg/L],MIC (T. violaceum TIMM1264) [mg/L],MIC [3] [mg/L],MIC [4] [mg/L],Compound
1.56,0.78,1.56,3.12,1.56,3.12,3.12,3.12,3.12,"C=C(CN(C)C/C=C/C#CC(C)(C)C)c1ccccc1N [Compound PR-1672, Trans-N-(6,6-dimethyl-2-hepten-4-ynyl)-N-methyl-[2-(2-aminophenyl)-2-propenyl]amine]"
0.39,0.1,0.39,0.39,0.1,6.25,0.39,0.39,0.39,"C=C(CN(C)C/C=C/C#CC(C)(C)C)c1ccccc1F [Compound PR-1491, Trans-N-(6,6-dimethyl-2-hepten-4-ynyl)-N-methyl-[2-(2-fluorophenyl)-2-propenyl]amine]"
3.12,3.12,3.12,6.25,3.12,6.25,6.25,6.25,6.25,"C=C(CN(C)Cc1ccc(C(C)(C)C)cc1)c1ccccc1C [Compound AD-028, N-(4-tert-butylbenzyl)-N-methyl-[2-(2-methylphenyl)-2-propenyl]amine]"
3.12,3.12,6.25,6.25,6.25,12.5,12.5,12.5,12.5,"C=C(CN(C)Cc1ccc(C(C)(C)C)cc1)c1ccccc1[N+](=O)[O-] [Compound AD-033, N-(4-tert-butylbenzyl)-N-methyl-[2-(2-nitrophenyl)-2-propenyl]amine]"
6.25,3.12,12.5,12.5,6.25,12.5,6.25,12.5,12.5,"CN(CC(=O)c1ccccc1O)Cc1ccc(C(C)(C)C)cc1 [Compound AD-057, 2-[N-(4-tert-butylbenzyl)-N-methylamino]-2'-hydroxyacetophenone]"
50,25,50,25,25,25,50,50,50,"C=C(CN(C)C/C=C/C#CC(C)(C)C)c1ccc(O)cc1 [Compound PR-1606, Trans-N-(6,6-dimethyl-2-hepten-4-ynyl)-N-methyl-[2-(4-hydroxyphenyl)-2-propenyl]amine]"
0.39,0.39,0.78,0.39,0.39,0.39,1.56,0.78,0.78,"C=C(CN(C)Cc1ccc(C(C)(C)C)cc1)c1cccc(C#N)c1 [Compound AD-052, 3-[1-{N-(4-tert-butylbenzyl)-N-methylamino}methyl]vinylbenzonitrile]"
0.39,0.39,0.39,0.39,0.39,6.25,0.39,0.39,0.39,"C=C(CN(C)C/C=C/C#CC(C)(C)C)c1ccc(F)cc1 [Compound PR-1430, trans-N-(6,6-dimethyl-2-hepten-4-ynyl)-N-methyl-[2-(4-fluorophenyl)-2-propenyl]amine]"
0.78,0.39,0.78,1.56,0.39,1.56,1.56,0.78,0.78,"C=C(CN(C)C/C=C/C#CC(C)(C)C)c1ccccc1 [Compound PR-1258, Trans-N-(6,6-dimethyl-2-hepten-4-ynyl)-N-methyl-2-phenyl-2-propenylamine]"
1.56,0.39,1.56,1.56,0.39,6.25,0.39,1.56,1.56,"C=C(CN(C)C/C=C/C#CC(C)(C)C)c1ccccc1Br [Compound PR-1505, trans-N-(6,6-dimethyl-2-hepten-4-ynyl)-N-methyl-[2-(2-bromophenyl)-2-propenyl]amine]"
0.78,0.78,1.56,1.56,0.78,3.12,3.12,1.56,3.12,"C=C(CN(C)Cc1ccc(C(C)(C)C)cc1)c1cccc([N+](=O)[O-])c1 [Compound AD-037, N-(4-tert-butylbenzyl)-N-methyl-[2-(3-nitrophenyl)-2-propenyl]amine]"
3.12,1.56,6.25,6.25,6.25,12.5,12.5,12.5,12.5,"C=C(CN(C)Cc1ccc(C(C)(C)C)cc1)c1ccc(C)cc1C [Compound AD-046, N-(4-tert-butylbenzyl)-N-methyl-[2-(2,4-dimethylphenyl)-2-propenyl]amine]"
0.1,0.1,0.2,0.1,0.1,0.39,0.1,0.1,0.39,"C=C(CN(C)C/C=C/C#CC(C)(C)C)c1cccc(Br)c1 [Compound PR-1484, Trans-N-(6,6-dimethyl-2-hepten-4-ynyl)-N-methyl-[2-(3-bromophenyl)-2-propenyl]amine]"
0.39,0.39,1.56,0.39,0.39,6.25,0.39,0.39,0.39,"C=C(CN(C)C/C=C/C#CC(C)(C)C)c1ccccc1C [Compound PR-1533, trans-N-(6,6-dimethyl-2-hepten-4-ynyl)-N-methyl-[2-(o-tolyl)-2-propenyl]amine]"
0.1,0.1,0.39,0.1,0.1,1.56,0.1,0.39,0.1,"C=C(CN(C)C/C=C/C#CC(C)(C)C)c1cccc(C)c1 [Compound PR-1540, trans-N-(6,6-dimethyl-2-hepten-4-ynyl)-N-methyl-[2-(m-tolyl)-2-propenyl]amine]"
0.78,0.2,1.56,1.56,0.78,1.56,1.56,1.56,1.56,"C=C(CN(C)Cc1ccc(C(C)(C)C)cc1)c1ccc(C)c(C)c1 [Compound AD-043, N-(4-tert-butylbenzyl)-N-methyl-[2-(3,4-dimethylphenyl)-2-propenyl]amine]"
0.1,0.1,0.2,0.2,0.05,0.2,0.2,0.2,0.1,"C=C(CN(C)C/C=C/C#CC(C)(C)C)c1cc(F)cc(F)c1 [Compound PR-2159, Trans-N-(6,6-dimethyl-2-hepten-4-ynyl)-N-methyl-[2-(3,5-difluorophenyl)-2-propenyl]amine]"

Compound,MIC (T. rubrum IF09185) [mg/L],MIC (T. rubrum IF05808) [mg/L],MIC [1] [mg/L],MIC [2] [mg/L],MIC (M. canis TIMM0760) [mg/L],MIC (M. gypseum IF08231) [mg/L],MIC (T. violaceum TIMM1264) [mg/L],MIC [3] [mg/L],MIC [4] [mg/L]
"CN(C/C=C/C#CC(C)(C)C)CC(=O)c1ccccc1O [Compound PR-1620, Trans-2-[N-(6,6-dimethyl-2-hepten-4-ynyl)-N-methylamino]-2'-hydroxyacetophenone]",12.5,6.25,6.25,12.5,12.5,25,12.5,12.5,12.5
